These results are taken from patent US20240360143A1, “[1,2,4]TRIAZOLO[4,3-A]PYRIMIDIN-7(8H)-ONE AS MITOCHONDRIAL PYRUVATE CARRIER INHIBITORS FOR USE IN THE TREATMENT OF CANCER” (MPC THERAPEUTICS SA, priority 2021, published 2024).

The target in assay [1] is T1, mitochondrial pyruvate carrier (MPC) (Homo sapiens, UniProt O95563+Q9Y5U8).
T1 sequence (Q9Y5U8 1-109): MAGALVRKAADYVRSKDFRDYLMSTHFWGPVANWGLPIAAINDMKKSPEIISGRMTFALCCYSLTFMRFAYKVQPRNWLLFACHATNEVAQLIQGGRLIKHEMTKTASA
T1 sequence (O95563 1-127): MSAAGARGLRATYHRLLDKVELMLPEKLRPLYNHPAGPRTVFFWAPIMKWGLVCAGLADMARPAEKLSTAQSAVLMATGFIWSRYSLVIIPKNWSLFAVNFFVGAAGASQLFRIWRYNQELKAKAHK
In words: Bret IC50, inhibitory activity against MPC. The format is cell-based. From the text:
(§1) The inhibition of mitochondrial pyruvate carrier (MPC) by compounds of the invention have been tested as follows and their inhibitory activity was expressed as IC50s values.
Table 2 below presents the IC50s of the compounds of the invention.

The target in assay [2] is T1, mitochondrial pyruvate carrier (MPC). Description: Seahorse Xfe24 pyruvate-dependent OCR in HeLa cells. The format is cell-based. Particulars: pyruvate-dependent OCR in presence of fCCP. As for the experimental part: as §1
Cells are plated in the customized Seahorse plates. For HeLa cells, seeding is at 4×10^4 cells/well in […] DMEM, 10% FBS, 1% pen/strep/glutamine. 3 wells are left blank (medium alone) for internal calibration. The assay cartridge is hydrated overnight at 37° C. in 1 ml/well XF Calibrant Solution.
Since 50 μl of compound of the invention will be injected into 450 μl washed cells, compounds are made up in assay medium at 10× the final desired concentration
For dose response analyses, compounds are tested at final concentrations 30, 5, 0.83, 0.14, 0.023 μM (1:6 serial dilutions from […])
Positive control: […] (the parent hit compound which gave rise to the actual series)
Negative control: Assay medium alone.
The seahorse reagent plate is prepared as follows and transfered to the Xfe24 analyser for the calibration step:
The medium is almost completely removed from the well without allowing cells to dry Cells are washed twice with 300 μl Assay Medium. 450 μl fresh Assay Medium is added to each well. The plate is transferred to the Xfe24 analyser for measurement of pyruvate-dependent OCR. All values are normalized to the initial basal respiration rate in each well which is measured prior to addition of compounds and designated as 100%. IC50 determination is based on the average of the 3 measurements made in the presence of fCCP, taking 30 μM parent hit compound as maximal inhibition and PBS/Ca/Mg as zero inhibition.

For assay [3], the system named is CD8 T cells (OT1 splenocytes). In words: In vitro priming of CD8 T cells (OT1 splenocytes), memory marker expression by flow cytometry. The format is cell-based, mouse. Particulars: day 7, highest doses. As for the experimental part: OT1 splenocytes were cultured for 3 days at a concentration of 10^6 cells per mL in RPMI medium (Gibco 61870-01) supplemented with 10% FBS, (Gibco 10270-106), 1% Penicillin/Streptomycin (Gibco 15070-063), 50 μM ß-mercaptoethanol, 1% HEPES (Gibco 15630-080), 1× Non-essential amino acids (Gibco 11140-035), 1% L-glutamine (Gibco 25030-081), 1 mM Sodium Pyruvate (Gibco 11360-039). Cells were additionally supplemented with hIL-2 100 U/ml (Glaxo-IMB), ovalbumin N4 peptide (257-264) 1 μg/ml (model peptide antigen from ovalbumin) and either different concentrations of Compound 45 or 47 or with their solvent DMSO as a control. At day 3, splenocytes were collected, washed and split, and cells were cultured for 4 additional days with 100 U/ml hIL-2 and hIL-7 (Peprotech 200-07) supplemented either with Compound 45 or 47 or DMSO. At day 7, flow cytometry analyses were performed for surface marker expression.
To evaluate the effects of MPC inhibition on T cell differentiation, OTI splenocytes were cultured in the presence of 1 μg/ml ovalbumin-derived N4 peptide, 100 IU/ml recombinant human IL-2 (rhIL-2) and the MPC inhibitors Compound 45 or 47 or control DMSO for 3 days. The cells were cultured for 4 more days in the presence of 100 IU/ml IL-2 and 10 ng/ml rhIL-7 (FIG. 1A) and the inhibitors or DMSO. When analyzing the surface expression of the central memory marker CD62L (FIG. 1B) and the pro-survival receptor CD127 (FIG. 1C) by flow cytometry on day 7, an increase in cells treated with the highest doses of compounds of the invention was observed compared to DMSO.
For orientation: A flow cytometer gives signals particle by particle.

As a reminder, the IC50 is the midpoint of a concentration-inhibition curve.

Take `CCCc1cc(=O)[nH]c2nnc(SCc3cc(F)cc(F)c3)n12` [Compound 3, 3-[(3,5-difluorobenzyl)sulfanyl]-5-propyl[1,2,4]triazolo[4,3-a]pyrimidin-7 (8H)-one]: in assay [1], the IC50 was determined as 2.2 µM. Same read-out and setting: under `CCCc1cc(=O)[nH]c2nnc(SCc3cccc(C#N)c3)n12` [Compound 7, 3-{[(7-oxo-5-propyl-7,8-dihydro[1,2,4]triazolo[4,3-a]pyrimidin-3-yl)sulfanyl]methyl}benzonitrile] stands 10.2 µM; under `CCCc1cc(=O)[nH]c2nnc(SCc3cc(F)ccc3C#N)n12` [Compound 8, 4-fluoro-2-{[(7-oxo-5-propyl-7,8-dihydro[1,2,4]triazolo[4,3-a]pyrimidin-3-yl)sulfanyl]methyl}benzonitrile], 5.39 µM. Turning to `CCCc1cc(=O)[nH]c2nnc(SCc3cc(F)ccc3OC)n12` [Compound 9, 3-[(5-fluoro-2-methoxybenzyl)sulfanyl]-5-propyl[1,2,4]triazolo[4,3-a]pyrimidin-7 (8H)-one], the IC50 stood at 0.878 µM in assay [1] and 0.185 µM in assay [2]. The corresponding values for `CCCc1cc(=O)[nH]c2nnc(SCc3cc(F)ccc3C)n12` [Compound 12, 3-[(5-fluoro-2-methylbenzyl)sulfanyl]-5-propyl[1,2,4]triazolo[4,3-a]pyrimidin-7 (8H)-one] are 0.561 µM and 0.158 µM. The compound `CCCc1cc(=O)[nH]c2nnc(SCCc3ccccc3)n12` [Compound 14, 3-[(2-phenylethyl)sulfanyl]-5-propyl[1,2,4]triazolo[4,3-a]pyrimidin-7 (8H)-one] registered an IC50 in assay [1] of 1.75 µM. On the same count and under the same terms, the same measure for `CCCc1cc(=O)[nH]c2nnc(SCc3ccoc3)n12` [Compound 15, 3-[(furan-3-ylmethyl)sulfanyl]-5-propyl[1,2,4]triazolo[4,3-a]pyrimidin-7 (8H)-one]: 2.09 µM; for `CCCc1cc(=O)[nH]c2nnc(SCc3cccc(OC)c3)n12` [Compound 17, 3-[(3-methoxybenzyl)sulfanyl]-5-propyl[1,2,4]triazolo[4,3-a]pyrimidin-7 (8H)-one]: 2.03 µM; for `CCCc1cc(=O)[nH]c2nnc(SCc3ccc(C#N)cc3)n12` [Compound 18, 4-{[(7-oxo-5-propyl-7,8-dihydro[1,2,4]triazolo[4,3-a]pyrimidin-3-yl)sulfanyl]methyl}benzonitrile]: 4.21 µM. Same read-out and setting: the same measure for `CCCc1cc(=O)[nH]c2nnc(SCc3ccc4occc4c3)n12` [Compound 19, 3-[(1-benzofuran-5-ylmethyl)sulfanyl]-5-propyl[1,2,4]triazolo[4,3-a]pyrimidin-7 (8H)-one]: 3.48 µM. Take `CCCc1cc(=O)[nH]c2nnc(SCc3c(C)cccc3C)n12` [Compound 25, 3-[(2,6-dimethylbenzyl)sulfanyl]-5-propyl[1,2,4]triazolo[4,3-a]pyrimidin-7 (8H)-one]: the IC50 in assay [1] was 0.593 µM; in assay [2] it was 0.171 µM. With `Cc1cc(=O)[nH]c2nnc(SCc3cc(F)ccc3F)n12` [Compound 29, 3-[(2,5-difluorobenzyl)sulfanyl]-5-methyl[1,2,4]triazolo[4,3-a]pyrimidin-7 (8H)-one], the IC50 in assay [1] worked out at 5.81 µM.

Consider `O=c1cc(CCOCc2ccccc2)n2c(SCc3cc(F)ccc3F)nnc2[nH]1` [Compound 30, 5-[2-(benzyloxy)ethyl]-3-[(2,5-difluorobenzyl)sulfanyl][1,2,4]triazolo[4,3-a]pyrimidin-7 (8H)-one], for which the IC50 in assay [1] came to 0.943 µM; in assay [2], 1.65 µM. `COCc1cc(=O)[nH]c2nnc(SCc3cc(F)ccc3F)n12` [Compound 31, 3-[(2,5-difluorobenzyl)sulfanyl]-5-(methoxymethyl) [1,2,4]triazolo[4,3-a]pyrimidin-7 (8H)-one] had an IC50 in assay [1] of 5.66 µM.

On to `O=c1cc(CCOCc2ccccc2Cl)n2c(SCc3cc(F)ccc3F)nnc2[nH]1` [Compound 33, 5-{2-[(2-chlorobenzyl)oxy]ethyl}-3-[(2,5-difluorobenzyl)sulfanyl][1,2,4]triazolo[4,3-a]pyrimidin-7 (8H)-one], for which the IC50 in assay [1] was determined as 1.32 µM; in assay [2], 1.04 µM. With `O=c1cc(C2CC2)n2c(SCc3c(F)cccc3Cl)nnc2[nH]1` [Compound 39, 3-[(2-chloro-6-fluorobenzyl)sulfanyl]-5-cyclopropyl[1,2,4]triazolo[4,3-a]pyrimidin-7 (8H)-one], in assay [1], the midpoint of inhibition, the IC50, lay at 0.593 µM. Turning to `CC(C)Cc1cc(=O)[nH]c2nnc(SCc3c(F)cccc3Cl)n12` [Compound 40, 3-[(2-chloro-6-fluorobenzyl)sulfanyl]-5-(2-methylpropyl) [1,2,4]triazolo[4,3-a]pyrimidin-7 (8H)-one], the half-maximal inhibitory concentration (IC50) worked out at 0.391 µM in assay [1] and 0.218 µM in assay [2]. In assay [1], `O=c1cc(CC2CC2)n2c(SCc3c(F)cccc3Cl)nnc2[nH]1` [Compound 41, 3-[(2-chloro-6-fluorobenzyl)sulfanyl]-5-(cyclopropylmethyl) [1,2,4]triazolo[4,3-a]pyrimidin-7 (8H)-one] yielded an IC50 of 0.129 µM. As to `O=c1cc(CCOCc2ccccc2)n2c(SCc3c(F)cccc3Cl)n[nH]c2n1` [Compound 43, 5-[2-(benzyloxy)ethyl]-3-[(2-chloro-6-fluorobenzyl)sulfanyl][1,2,4]triazolo[4,3-a]pyrimidin-7 (1H)-one], the IC50 in assay [1] is 0.814 µM; in assay [2], 0.289 µM.

In assay [1], `N#Cc1ccc(CSc2nnc3[nH]c(=O)cc(Cc4ccccc4)n23)cc1` [Compound 46, 4-{[(5-benzyl-7-oxo-7,8-dihydro[1,2,4]triazolo[4,3-a]pyrimidin-3-yl)sulfanyl]methyl}benzonitrile] showed an IC50 of 4.69 µM. As for `CCCc1cc(=O)[nH]c2nnc(Sc3ccccc3)n12` [Compound 47, 3-(phenylsulfanyl)-5-propyl[1,2,4]triazolo[4,3-a]pyrimidin-7 (8H)-one], the “cells positive for central memory marker CD62L” value in assay [3] (vs DMSO (FIG. 1B)) is “increase”. In assay [3] (vs DMSO (FIG. 1C)), the “cells positive for pro-survival receptor CD127” value is recorded as “increase”. Also, the IC50 was determined as 0.167 µM in assay [1] and 0.184 µM in assay [2]. `CCCc1c(C)c(=O)[nH]c2nnc(SCc3c(F)cccc3Cl)n12` [Compound 48, 3-[(2-chloro-6-fluorobenzyl)sulfanyl]-6-methyl-5-propyl[1,2,4]triazolo[4,3-a]pyrimidin-7 (8H)-one] had an IC50 in assay [1] of 0.873 µM.

With `CCCc1cc(=O)[nH]c2nnc(S(=O)(=O)Cc3c(F)cccc3Cl)n12` [Compound 50, 3-[(2-chloro-6-fluorobenzyl)sulfonyl]-5-propyl[1,2,4]triazolo[4,3-a]pyrimidin-7 (8H)-one], the midpoint of inhibition in assay [1], the IC50, lay at 11.2 µM.

As to `CCCc1cc(=O)[nH]c2nnc(CCc3ccccc3)n12` [Compound 51, 3-(2-phenylethyl)-5-propyl[1,2,4]triazolo[4,3-a]pyrimidin-7 (8H)-one], in assay [1], the IC50 turned out to be 3.65 µM. The compound `Cc1cc(=O)[nH]c2nnc(SCc3ccc(Cl)cc3)n12` [Compound 85, 3-[(4-chlorobenzyl)sulfanyl]-5-methyl[1,2,4]triazolo[4,3-a]pyrimidin-7 (8H)-one] displayed an IC50 in assay [1] of 12.5 µM.

In the case of `CCCc1cc(=O)[nH]c2nnc(SCc3cccc4ccccc34)n12` [Compound 90, 3-[(naphthalen-1-ylmethyl)sulfanyl]-5-propyl[1,2,4]triazolo[4,3-a]pyrimidin-7 (8H)-one], the IC50 in assay [1] amounted to 2.5 µM.
